Columns and labels:
[1] = system: mast cells (rat basophilic leukemia cell line, RBL-2H3); test: Degranulation (β-hexosaminidase release) in DNP-IgE/DNP-HSA stimulated mast cells; assay type: cell-based; conditions: 10 μM or 100 μM, 30 min pretreatment, DNP-IgE sensitized, DNP-HSA 3 hours, vs control (NC)
Method: In order to confirm the effect of inhibiting allergic inflammatory response and improving atopic dermatitis by the pentapeptide of the present invention, the degree of degranulation was confirmed using mast cells (rat basophilic leukemia cell line, RBL-2H3).
Specifically, RBL-2H3 cells were inoculated into a 12-well plate at a density of 5×10^5 cells/well, and then cultured overnight at a 37° C., 5% CO2 incubator. Then, the cells were sensitized by adding DNP-IgE to a complete medium. After 3 hours, it was washed 3 times with DPBS and then PIPES buffer was added thereto. In addition, an immune response was induced by pretreatment with the pentapeptide of the present invention synthesized in Example 1 for 30 minutes and then with DNP-HSA for 3 hours. After that, 25 μL of the supernatant was recovered, 25 μL of the substrate solution (5 mM p-nitrophenyl-N-acetyl-β-D-glucosaminide dissolved in 0.2 M sodium citrate buffer, pH 4.5) was added thereto, and then incubated at 37° C. for 90 minutes to react. After the reaction, 200 μL of stop solution (0.1 M Na2CO3/NaHCO3, pH 10.0) was added to each well to stop the enzymatic reaction, and absorbance was measured at 405 nm using a microplate reader. β-hexosamidase secreted from the supernatant was quantified according to Equation 1 below after adding 0.5% Triton X-100 solution to the cells. […]

[2] = system: mast cells (rat basophilic leukemia cell line, RBL-2H3); test: Expression of inflammation-related cytokines in mast cells (RT-PCR); assay type: cell-based; conditions: RBL-2H3, DNP-IgE sensitized, DNP-HSA 2 hours, vs control (NC)
Method: In order to confirm the effect of inhibiting allergic inflammatory response and improving atopic dermatitis by the pentapeptide of the present invention, the expression pattern of inflammation-related cytokines was confirmed using mast cells (rat basophilic leukemia cell line, RBL-2H3).
Specifically, RBL-2H3 cells were inoculated into a 12-well plate at a density of 5×10^5 cells/well, and then cultured overnight at a 37° C., 5% CO2 incubator. Then, the cells were sensitized by adding DNP-IgE to a complete medium. After 3 hours, it was washed 3 times with DPBS and then PIPES buffer was added thereto. In addition, an immune response was induced by pretreatment with the pentapeptide of the present invention synthesized in Example 1 for 30 minutes and then with DNP-HSA for 2 hours. At this time, 20 μg/mL of ketotifen was used as a positive control.
(§1) After recovering the cells and then isolating RNA, cDNA was synthesized from the isolated RNA using a cDNA synthesis kit (Intron, Korea). A polymerase chain reaction was performed using the synthesized cDNA, PCR premix (Intron, Korea) and IL-3, IL-4, and TNF-α primers, and the amplified PCR product was electrophoresed on an agarose gel to confirm a DNA band. The primer sequences used at this time are as shown in [Table 1].

[3] = High temperature stability at 121° C. (HPLC); assay type: physicochemical; conditions: 1000 ppm in sterile distilled water, 15 and 30 minutes
Method: The peptide of the present invention was dissolved in sterile distilled water at a concentration of 1000 ppm, heated at 121° C. for 15 minutes and 30 minutes, followed by HPLC analysis.

[4] = High temperature stability during long-term storage at 45° C. (HPLC); assay type: physicochemical; conditions: 1000 ppm in sterile distilled water, 7 to 75 days
Method: The peptide of the present invention consisting of the amino acid sequence of SEQ ID NO: 1 was dissolved in sterile distilled water at a concentration of 1000 ppm, stored at 45° C. for 7 days, 14 days, 28 days, 60 days and 75 days, followed by HPLC analysis.

mouse splenocytes = test: Expression of inflammation-related cytokines in splenocytes (RT-PCR); assay type: cell-based; conditions: TNF-α induced, 30 minutes, vs control (NC)
Method: In order to confirm the effect of inhibiting allergic inflammatory response and improving atopic dermatitis by the pentapeptide of the present invention, the expression pattern of inflammation-related cytokines was confirmed using mouse splenocytes.
Specifically, after separating mouse splenocytes, the cells were inoculated into a 24-well plate at a density of 1×10^7 cells/well, and then cultured overnight at a 37° C., 5% CO2 incubator. After changing the medium to a serum-free medium, 4 hours later, the pentapeptide of the present invention and TNF-α were treated and cultured for 30 minutes. At this time, 20 μg/mL of ketotifen was used as a positive control.
as §1, with “synthesized” for “synthesized from the isolated RNA”, “TNF-α, IL-113” for “IL-3, IL-4,”, “COX-2” for “TNF-α”, “2].” for “1].”

For “KFLIK (Pentapeptide) [pentapeptide of the present invention]”, the “release amount of β-hexosamidase” value [1] was “decreased in a concentration-dependent manner”, the “expression of IL-3” value [2] was “significantly reduced” and the “expression of IL-4” value [2] was “significantly reduced”. The “expression of TNF-α” value [2] was “significantly reduced”, the “high-temperature stability at maximum heating temperature” value [3] was “maintained stability for 30 minutes” and the “high-temperature stability during long-term storage” value [4] was “maintained stability for 75 days”. The “expression of COX-2” value (mouse splenocytes) was “significantly reduced”, the “expression of IL-1β” value (mouse splenocytes) was “significantly reduced” and the “expression of TNF-α” value (mouse splenocytes) was “significantly reduced”.
